The text below walks through data of patent US12569495B2, “Inhibitors of porcine reproductive and respiratory syndrome virus” (UNIVERSITY OF CONNECTICUT, priority 2020, dated 2026).

pIC50: −log10 of the molar value. “Also recorded” adds a separate entry of the source.

The target in data set [1] is T1, protein-protein interactions (PPI) between CD163-SRCR5 domain and PRRSV GP2a protein (Sus scrofa, UniProt Q2VL90).
T1 construct: The amplified cDNA fragments of SRCR2 or SRCR5 were subcloned into the pBiFC-VN155(I152L) vector; Myc tag (from vector backbone pMyc-CMV); expressed in transfected cells; host or cells: HEK293T
Briefly: BiFC assay between SRCR5-VN and GP2a-VC proteins. The class given is cell-based, porcine CD163; PRRSV. Conditions: HEK293T cells; compounds at 5 μM; 24 h; DMSO as Ctrl. The source says:
(§1) The N-terminus and C-terminus of the truncated Venus-I152L were inserted into vector backbone pMyc-CMV and pCMV-HA, constituting commercial plasmids pBiFC-VN155(I152L) and pBiFC-VC155, respectively (Addgene, Watertown, MA, USA). See Kodama and Hu, Biotechniques 49:793-805 (2010). cDNA fragments for the scavenger receptor cysteine-rich domain 2 (SRCR2) and SRCR5 of porcine CD163 receptor, and for PRRSV glycoproteins GP2a and GP4 were amplified by RT-PCR. The amplified cDNA fragments of SRCR2 or SRCR5 were subcloned into the pBiFC-VN155(I152L) vector digested with EcoRI/BglII. For constructions of GP2a and GP4 fusion proteins, cDNA fragments encoding GP2a or GP4 were subcloned into the pBiFC-VC155 vector digested with EcoRI/BglII. All plasmid clones were verified by DNA Sanger sequencing.
HEK293T cells cultured in 12-well plates were transfected with appropriate plasmids for each BiFC assay using FuGENE® 6 (Promega, Madison, WI, USA). After 5 h, various concentrations of chemical compounds were added to the culture media. DMSO was used as the vehicle control. Fluorescence images of treated cells at 24 h after plasmid transfection were captured using an inverted Nikon fluorescence microscope. Fluorescence intensity of treated cells was measured by ImageJ.
Using the previously described BiFC vector based on the fragmented venus protein (VN-155[I152L], hereafter named VN) and (VC-155, hereafter named VC), fusion protein constructs were established between the porcine CD163 protein SRCR5 or SRCR2 domain and VN, and between the PRRSV minor glycoproteins (GP2a or GP4) and VC (FIG. 1A, 2). See Kodama et al., Biotechniques 49(5): 793-805 (2010). These plasmids were co-expressed in HEK293T cells to evaluate the PPIs between the SRCR5 domain and GP2a or GP4.
The BiFC assays was tested to determine whether it could identify small molecules with potential to block the protein-protein interactions between CD163 and PRRSV. A customized virtual screen of a library of commercially available small molecules was performed with the AtomNet® model at a region centered around R561 (FIG. 3) based on the available 3-D protein structure of porcine CD163-SRCR5 domain, and 74 compounds predicted to target this potential binding site were procured. Ma et al., J. Virol. 91(3): e01897-16 (2017). These compounds were tested using the BiFC assay, to evaluate their ability to inhibit the PPI between GP2a and SRCR5. Plasmids were co-transfected in HEK293T cells, 4 h later, compounds were individually administered to cells at 5 μM. Twenty-four hours later, images were taken under a fluorescence microscope and the fluorescence quantified. […] Until these studies, there has been no known biological activity reported for compound B7.

In data set [2] the target is T2, PPI between PRRSV GP4 glycoprotein and CD163-SRCR5 domain (Sus scrofa, UniProt Q2VL90).
T2 construct: The amplified cDNA fragments of SRCR2 or SRCR5 were subcloned into the pBiFC-VN155(I152L) vector; Myc tag (from vector backbone pMyc-CMV); expressed in transfected cells; host or cells: HEK293T
Description: BiFC assay between SRCR5-VN and GP4-VC proteins. The class given is cell-based, porcine CD163; PRRSV. Conditions: HEK293T cells; DMSO as Ctrl.
Source text: as §1, with “All plasmid clones were verified by DNA Sanger sequencing.” left out
HEK293T cells cultured in 12-well plates were transfected with appropriate plasmids for each BiFC assay using FuGENE® 6 (Promega, Madison, WI, USA). […] Fluorescence images of treated cells at 24 h after plasmid transfection were captured using an inverted Nikon fluorescence microscope. Fluorescence intensity of treated cells was measured by ImageJ. […]
The BiFC assays was tested to determine whether it could identify small molecules with potential to block the protein-protein interactions between CD163 and PRRSV. […] Twenty-four hours later, images were taken under a fluorescence microscope and the fluorescence quantified. […]

Data set [3] can be described thus: MTT cytotoxicity assay in PAMs. The class given is cell-based, pig. As to conditions: pig, porcine alveolar macrophages (PAMs), 24 h incubation, read-out: LC50, MTT assay. The protocol: (§2) The cytotoxicity of selected screening compounds was determined in porcine alveolar macrophages (PAMs) the principal host cell of productive PRRSV infection. Briefly, various concentrations of the compounds were added to PAMs seeded in 24-well plates and incubated for 24 h. Then 50 μl of the MTT assay labeling reagent (In Vitro Toxicology Assay Kit, MTT based, Sigma-Aldrich) were added to each well and incubated for 4 h before 500 μl of the solubilization solution was added into each well to fully dissolve the formazan crystal by overnight incubation. The absorbance of samples was measured using a spectrophotometry microplate reader at 600 nm. PAMs treated with DMSO served as the controls.
In general terms: Tetrazolium assays rely on reduction of a dye to a coloured formazan, in cell work by metabolically active cells.

The subject of data set [4] is porcine alveolar macrophages (PAMs). Briefly: MTT cytotoxicity assay in PAMs. The class given is cell-based, pig. The protocol: as §2
The next data set deals with PRRSV strain VR-2332. Description: PRRSV titration assay of culture media of infected PAMs. Conditions: for log reduction of viral titer: pre- and post-inoculation treatment. The class given is cell-based. The protocol: For PRRSV infection of PAM cells, PAMs were seeded one day prior to infection. […] Cells were inoculated with VR-2332, SDSU73, NADC30 or Lelystad PRRSV at MOI=0.1 for 1 h. The 24 h cell medium supernatant was stored at −80° C. until use.
For PRRSV titration assay, MARC145 cells were seeded in 48-well plates and grew to ˜80% density before inoculation. Viral supernatants were prepared by 10-fold serial dilution, and 100 μl of the dilutions was added per well in six replicates. Inocula were removed from cells after 2 h and replaced with 0.5 mL of DMEM supplemented with 2% FBS, 2 mM glutamine, 0.1 mM MEM non-essential amino acids, 50 U/mL penicillin, and 50 μg/mL streptomycin (Invitrogen). Cells were cultured at 37° C. for 6 days and any cytopathic effects were observed and recorded. The PRRSV titer was calculated using the Reed and Muench method and expressed as median tissue culture infectious dose (TCID50/mL). Reed and Muench, Am. J. Epidemiol. 27(3): 493-497 (1938).

T1 sequence (Q2VL90 477-577): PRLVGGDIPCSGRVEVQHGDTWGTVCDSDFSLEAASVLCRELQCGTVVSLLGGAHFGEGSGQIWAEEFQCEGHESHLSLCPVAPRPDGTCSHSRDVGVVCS
T2 sequence (Q2VL90 477-577): as above

With `Cc1cc(F)ccc1S(=O)(=O)Nc1nc2ccccc2nc1Nc1cccc(S(=O)(=O)N2CCOCC2)c1` [Compound B7, 4-fluoro-2-methyl-N-[3-(3-morpholin-4-ylsulfonylanilino)quinoxalin-2-yl]benzenesulfonamide], the “inhibition of PPI between GP2a and SRCR5 (venus fluorescence in BiFC assay)” value in data set [1] is on record as “significantly inhibited the reconstitution of venus fluorescence; also recorded: positive inhibitory effect; also recorded: significantly inhibits the interaction”. Further, in data set [2], the “inhibition of PPI between PRRSV GP4 glycoprotein and CD163-SRCR5 domain (BiFC)” value is listed as “also inhibited the PPI; also recorded: significantly inhibits the interaction”. For the same molecule, in data set [3], the CC50 at 24 h was 81.7 µM. In addition, the “concentrations well-tolerated by PAMs (MTT assay)” value in data set [4] (24 h) is “below 25 μM”. Moreover, in data set [4] (Sus scrofa, Macrophage, 24 h incubation, read-out: IC50, cell viability in MTT assay), the pIC50 is 4.09. Besides, the “log reduction of viral titer” value with PRRSV strain VR-2332 (10 μM, 24 h) stood at 1.7 log. In the data set on PRRSV strain VR-2332 (15 μM, 24 h), the “log reduction of PRRSV titer, post-inoculation treatment alone” value was determined as 2.8 log and the “log reduction of viral titer” value was determined as 2.9 log. Moreover, the “inhibition of PRRSV infection of PAMs (titration of culture media)” value with PRRSV strain VR-2332 (10-20 μM B7, 24 h) was “inhibited PRRSV infection of PAMs effectively”.

Usually pIC50 stands for −log10 of the IC50, conventionally taken in molar units.
